These compounds were tested on Coptotermes formosanus (assay: Termiticidal activity against Coptotermes formosanus assessed as mortality at 5 uM up to 14 days by no choice test relative to control). Settings: 336 h.
Type: functional

| Structure (SMILES) | mortality at 5 µM [%] |
| --- | --- |
| CCCCCCCCOc1ccc2ccc(=O)oc2c1 [7-OCTYLOXYCOUMARIN] | 17.2 |
| CC(C)Oc1ccc2ccc(=O)oc2c1 [7-ISOPROPOXYCOUMARIN] | 13.1 |
| CCOc1ccc2ccc(=O)oc2c1 [ETHOXYCOUMARIN] | 14.1 |
| O=c1ccc2ccc(OCCCc3ccccc3)cc2o1 [7-(3-PHENYLPROPOXY)COUMARIN] | 16.2 |
| O=C(/C=C/c1ccccc1)Oc1ccc2ccc(=O)oc2c1 [7-CINNAMOYLOXYCOUMARIN] | 12.1 |
| CCC#CCOc1ccc2ccc(=O)oc2c1 [7-(2-PENTYNYLOXY)COUMARIN] | 32.3 |
| O=c1ccc2ccc(OCCc3ccccc3)cc2o1 [7-PHENETHOXYCOUMARIN] | 10.1 |
| CCCOc1ccc2ccc(=O)oc2c1 [7-PROPOXYCOUMARIN] | 16.2 |
| C=CCOc1ccc2ccc(=O)oc2c1 [7-ALLYLOXYCOUMARIN] | 38.4 |
| CC(C)COc1ccc2ccc(=O)oc2c1 [7-ISOBUTOXYCOUMARIN] | 9.1 |
| C/C=C/COc1ccc2ccc(=O)oc2c1 [(E)-7-(2-BUTENYLOXY)COUMARIN] | 33.3 |
| CCCCCCCCCCCCCCCCOc1ccc2ccc(=O)oc2c1 [7-HEXADECYLOXYCOUMARIN] | 3 |
| O=c1ccc2ccc(Oc3ccc([N+](=O)[O-])cc3)cc2o1 [7-(4-NITROPHENOXY)COUMARIN] | 62.6 |
| COc1ccc2ccc(=O)oc2c1 [HERNIARIN] | 13.1 |
| COc1ccc(COc2ccc3ccc(=O)oc3c2)cc1 | 41.4 |
| O=c1ccc2ccc(OC3CCCCC3)cc2o1 [7-CYCLOHEXYLOXYCOUMARIN] | 65.7 |
| CCCCCCCCCCCCOc1ccc2ccc(=O)oc2c1 [7-DODECYLOXYCOUMARIN] | 19.2 |
| CCCCOc1ccc2ccc(=O)oc2c1 [7-BUTOXYCOUMARIN] | 19.2 |
| CC#CCOc1ccc2ccc(=O)oc2c1 [7-(2-BUTYNYLOXY)COUMARIN] | 51.5 |
| CCCCCC#CCOc1ccc2ccc(=O)oc2c1 [7-(2-OCTYNYLOXY)COUMARIN] | 28.3 |
| COc1cc(COc2ccc3ccc(=O)oc3c2)cc(OC)c1 [7-(3,5-DIMETHOXYBENZYLOXY)COUMARIN] | 32.3 |
| CCCCCCCCCCCCCCCCCCOc1ccc2ccc(=O)oc2c1 [7-OCTADECYLOXYCOUMARIN] | 8.1 |
| O=c1ccc2ccc(OCc3ccccc3)cc2o1 [7-BENZYLOXYCOUMARIN] | 23.2 |
